Row | Compound | melting point [°C]
1 | COC(=N)NC(=O)NC(C)C | 64 to 67
2 | CCN(CC)CCNC(=O)c1ccc([N+](=O)[O-])cc1OC | 59.3
3 | CC(=O)CC(=O)NCC#N | 63 to 65
4 | Cc1nc(-c2ccccc2)nc(Cl)c1C | 120 to 122
5 | COc1cc2c(cc1OS(N)(=O)=O)CC(C)(C)N(C(=O)c1cc(OC)c(OC)c(OC)c1)C2 | 172 to 176
6 | Nc1nc(NCCc2ccc(CCC3CCCCC3)cc2)nc2c1ncn2C1OC(CO)C(O)C1O (stereo unspecified) | 154 to 160
7 | OC1=NC2CCCc3cccc(c32)N1 (stereo unspecified) | 230 to 233
8 | NC1CN(c2c(F)cc3c(=O)c(C(=O)O)cn(C4CC4)c3c2F)CC12OCCO2 (stereo unspecified) | 224 to 226
9 | OCC1CCC(N2CCC(=C3c4ccccc4Sc4ccc(C(F)(F)F)cc43)CC2)CC1 (stereo unspecified) | 193 to 197
10 | CCOC(=O)C1(O)C(=O)N2CCOc3cc(Cl)cc1c32 (stereo unspecified) | 186 to 187
11 | c1cc2c3c(c1)nc(SCc1ccncc1)n3CCC2 | 105 to 107
12 | CCCCNc1c(C(=O)OCC)c(C)nc2nc(C)c(C)nc12 | 97 to 99
13 | C(=C\C1CCCCC1)/c1nc2ccccc2n1-c1ccccn1 | 105 to 106
14 | O=C(O)[C@@H]1CSCN1C(=O)CCc1ccccc1 | 93 to 95
15 | Cc1c(C(N)=O)ncn1-c1cccc(Cl)c1 | 179 to 181
16 | Cc1c(C)c(N2CCN(c3ccc(Cl)cc3)CC2)c(C)c2c1OC(C)(C)C2 | 226 to 229
17 | CCc1nn(C[C@@H]2CCCN2C)c(C(N)=O)c1[N+](=O)[O-] | 148 to 150
18 | CCCc1ccc(C(=O)O)c(C(=O)O)n1 | 149 to 153
19 | CCCCCCc1cc(-c2nc(-c3cc(CCCCCC)c(O)cc3O)nc(-c3cc(CCCCCC)c(O)cc3O)n2)c(O)cc1O | > 250
20 | CCCCCCCCCCCc1nnc2n1-c1ccccc1C(c1ccccc1)OC2 (stereo unspecified) | 83 to 84
21 | CN(C)CCN1C(=O)c2ccc3[nH]c4cc(O)c(O)cc4c3c2C1=O | > 260
22 | COC(=O)c1ccc(NC(C)=O)c2c1OCCC2 | 175
23 | N#Cc1ccc(CBr)c([N+](=O)[O-])c1 | 85 to 89
24 | CC(C)(C)C(=O)CN1C(=O)c2ccccc2C1=O | 96 to 99
25 | COCCCS(=O)(=O)NC(=O)CCc1cc(C(C)(C)C)nn1Cc1ccc(C(F)(F)F)cc1Cl | 149 to 150
26 | CN1CCN(C2=Nc3cc(Cl)ccc3N3CCc4cccc2c43)CC1 | 154 to 156
27 | Cc1ccc2c(c1)/C(=N\NC(N)=O)C(=O)N2CCN(C(C)C)C(C)C | 159 to 161

Row | Compound | melting point [°C]
28 | NC(=O)[C@H]1CCCN2CC[C@@H]3c4cc(Cl)ccc4N[C@@H]3[C@H]12 (racemic) | 270
29 | COc1ccc(C(C#N)C2(O)CCCCC2)cc1 (stereo unspecified) | 125 to 127
30 | CC(C)CCCC(C)C1CC=C2C3=C(CCC21C)C1(C)CCC(C(=O)c2ccncc2)CC1CC3 (stereo unspecified) | 129 to 131
31 | CN1CCN(c2n[nH]c(-c3ccc(Cl)cc3)c2-c2ccncc2)CC1 | 262 to 264
32 | COc1ccc([C@H]2CCCN2[S@@](=O)C(C)(C)C)cc1 | 61 to 63
33 | CCOC(C)OCC(O)CN1C(CO)=Cc2ccsc2S1(=O)=O (stereo unspecified) | 95 to 97
34 | CN(C)Cc1ccc(CSCCNC2=NS(=O)(=O)N=C2N2CCCC2)o1 | 151 to 152
35 | Cc1c(F)ccc(C#N)c1Cl | 63 to 65
36 | C=CCC1COC(CC)(CC(=O)O)c2[nH]c3c(CC)cccc3c21 (stereo unspecified) | 96 to 97
37 | CCN1C(=O)C(NC(=O)C(F)(F)F)CCc2c1ccc(Nc1ncc(Cl)c(Nc3ccccc3S(=O)(=O)N(C)C)n1)c2OC (stereo unspecified) | 250 to 251
38 | COc1cn(-c2cccc(C(F)(F)F)c2)nc(C(C)=O)c1=O | 155 to 156
39 | Cc1ccc(S(=O)(=O)N2CCCC2c2cccc(C)c2)cc1 (racemic) | 79
40 | OCCn1cc2c(n1)CN=C(c1ccccc1)c1cc(Cl)ccc1-2 | 173 to 175
41 | CCc1noc(-c2cn(-c3nccnn3)cn2)n1 | 181 to 182
42 | CN(C)CCNC(=O)N1CCN(c2ccc(Cl)cc2)CC1 | 125 to 128
43 | Nc1n[nH]c2c(F)cccc12 | 170
44 | CO[C@]1(c2cc(F)cc(Sc3ccc(/C(C)=N/O)cc3)c2)CCO[C@@H](C)C1 | 105
45 | CC1CCCC(NC(CCc2ccccc2)C(=O)O)C(=O)N1CC(=O)O (stereo unspecified) | 215 to 217
46 | c1ccc2c(CC3CCCCC3)c[nH]c2c1 | 71 to 73
47 | NS(=O)(=O)c1ccc(C2=C(c3ccc(F)c(F)c3)CCC2)cc1 | 147 to 148
48 | CN(C)C(=O)c1cc(=O)c2ccsc2s1 | 126
49 | CN1CCN(c2ccc(Cl)nn2)CC1 | 106 to 107
50 | CSC1=NCCc2nc(C)nn21 | 75.5 to 76.5
51 | Oc1cccc(N(c2ccccc2)c2ccc(-c3ccc(N(c4ccccc4)c4cccc(O)c4)cc3)cc2)c1 | 113 to 117
52 | Cc1nnc2n1-c1ccccc1C(c1ccccc1)=NC2 | 216 to 218
53 | COc1ccc(SCCNC(=O)N2CCCC2=O)cc1 | 64 to 65

Further lines, results first:

Row | melting point [°C] | Compound
54 | 180 to 182 | CON=Cc1ccc2c(c1)c1c(n2Cc2cccc(F)c2)CCC(NC(=O)C(C)C)C1 (stereo unspecified)
55 | 186 to 188 | CCOC(=O)c1[nH]c2cccc(C)c2c1Sc1ccc(Cl)cc1
56 | 143 to 144 | O=C(C=Cc1cccnc1)NCCCCN1CCN(C(c2ccccc2)c2ccccc2)CC1
57 | 72 to 73 | CCOC(=O)[C@@H](CNC(=O)c1ccccc1)[C@H](C)O
58 | 168 to 175 | O=C(Nc1ccc(OC(F)(F)F)cc1)NC1CCN(C(=O)c2cc(O)c(O)c(O)c2)CC1
59 | 115 to 116 | CCC(=O)Nc1cc(-c2sc(C(C)O)nc2-c2cccc(C)c2)ccn1 (stereo unspecified)
60 | 146 to 147 | CCOC(=O)c1csc(NC(=O)c2ccccc2)n1
61 | 65 to 68 | CC(C)CCOC(=O)COc1cc(F)ccc1C(=O)NCc1cccc([N+](=O)[O-])c1
62 | 133 to 135 | COC(=O)N1CCC(C(C#N)(c2ccccc2)c2ccccc2)C1 (stereo unspecified)
63 | 124 to 125 | Cc1nc(-c2cn(CCC3CC3)nn2)sc1C(=O)NCc1cccnc1
64 | 132 to 134 | COc1ccccc1-c1cc(F)cc(OCc2ccc3c(-c4ccoc4)cc(C#N)nc3c2)c1
65 | 237 to 240 | O=C1NC(=O)c2c1c(-c1ccccc1Cl)cc1oc3cc(OS(=O)(=O)C(F)(F)F)c(O)cc3c21
66 | 141 to 145 | CCN(C(=O)c1ccc(C(=O)c2cnc3ccccn23)cc1)c1ccccc1
67 | 89 to 90 | CCCCCCCCCOc1ncc(-c2ccc(O)cc2)cn1
68 | 180 to 182 | Cc1ccc(S(=O)(=O)NCCCCOc2ccc(-c3nnn[nH]3)cc2)cc1
69 | 79 to 80 | Cc1ccc(C)c(OCCCC(C)(C)C(=O)Nc2ccc(F)cc2F)c1
70 | 260 to 262 | O=C1c2ccccc2N=C(c2ccccc2)C1O (stereo unspecified)
71 | 76 to 77 | O=[N+]([O-])c1cc(CO)ccc1OCc1ccccc1
72 | 198 to 200 | Cc1ccc(O)cc1C(CCC(=O)O)Oc1cc(OCc2cccnc2)ccc1C#N (racemic)
73 | 174 to 175 | Cc1cc(-c2csc(-c3cccc(C(=O)O)c3)n2)c(C)o1
74 | 170 | CCOC(=O)C1=C(N)NC(N)=C(C(=O)OC(C)C)C1c1ccccc1 (stereo unspecified)
75 | 209 to 211 | COc1ccc(/C=C/C(=O)Nc2ccccc2C(=O)O)cn1
76 | 143 to 145 | CNC(=O)C(=NOC)c1ccccc1COc1ccc2c(c1)OCC2=NOC
77 | 129 to 130 | COC(=O)c1ccc(OCCN2C(=O)c3ccccc3C2=O)cc1

Row | melting point [°C] | Compound
78 | 195 to 198 | CC1(C)CCC(C)(C)c2cc(COc3ccc(C(=O)O)cc3-c3ccccc3)ccc21
79 | 167 | N#Cc1ccc(-c2ccc(OC3SCC(O)C(O)C3O)cn2)cn1 (stereo unspecified)
80 | 232 | Cc1ccc(N2C(=O)c3ccccc3C2O)nn1 (stereo unspecified)
81 | 149 to 151 | O=C(O)c1cccnc1Oc1cccc(C(F)(F)F)c1
82 | 115 to 118 | CSc1ccc(-c2cnn(Cc3ccccc3)c(=O)c2Br)cc1
83 | 104 to 106 | Nc1cnccc1Oc1ccc(Cl)cc1
84 | 209 to 210 | C(=C\c1nc(COc2ccc(Cn3cnnc3)cc2)co1)/c1ccccc1
85 | 136 to 137 | CNS(=O)(=O)c1ccc(C2=C(c3ccccc3)C(=O)C(C)(C)O2)cc1Cl
86 | 129 to 130 | Nc1cc(Cl)c([N+](=O)[O-])cc1OC(=O)c1cccc(C(=O)Oc2cc([N+](=O)[O-])c(Cl)cc2N)c1
87 | 129 | CN(CCCN1CCC(=C2c3ccccc3C=Cc3ccccc32)CC1)c1ncccn1
88 | 45 | CCCc1ccc(-c2cc(F)c(-c3ccc(CC)s3)c(F)c2)cc1
89 | 116 to 118 | COC(=O)N1CCC(=C2c3ccccc3CCc3cccnc32)CC1
90 | 174 to 176 | CCC1C(=O)N2C(C(=O)OCc3ccc([N+](=O)[O-])cc3)=C(CCNC(C)=O)CC12 (stereo unspecified)
91 | 97 to 100 | CC=CCOc1ccc(C(=O)C=Cc2cccc(OC)c2)c(O)c1
92 | 155 to 157 | CC(C)(C)c1cc(-c2nn(Cc3ccccc3)c3ncccc23)cc(C(C)(C)C)c1O
93 | 102 to 105 | CC(C)Oc1ccc(Nc2ccc(N=C=O)cc2C(F)(F)F)cc1C(F)(F)F
94 | 55 to 56 | COc1ccc(-c2ccccc2[N+](=O)[O-])cc1
95 | 194 to 196 | Cc1cc(C)c2ncc(NC(=O)Nc3cc(C(C)C)c(O)c(C(C)C)c3)c(-c3ccccc3Cl)c2c1
96 | 64 to 68 | OC(CNCCCOCCCCCCc1ccccc1)c1ccc2c(n1)COC(c1ccccc1)O2 (stereo unspecified)
97 | 146 to 147 | COc1ccc(-c2cc(COS(C)(=O)=O)c(=O)n(Cc3ccc(F)c(F)c3)n2)cc1F
98 | 61 to 64 | FC(F)(F)c1cc(N2CCN(Cc3ccc4ccccc4n3)CC2)ccc1Cl
99 | 254 to 257 | O=C1NC(=O)c2c1c(-c1c(Cl)cccc1Cl)cc1c2c2cc(O)ccc2n1CCO
100 | 188 to 190 | CC(C(=O)O)c1ccc2cc(OCc3ccc4ccc(Cl)cc4n3)ccc2c1 (stereo unspecified)
101 | 160 to 162 | CC(C)(C)OC(=O)NCc1ccc(C(=O)Nc2ccccc2N)cc1

From a melting point compilation (Tetko et al.; mined from patent text by program, amines drawn as free bases though some values may be those of a salt)
